Key:
[1] = Plasma level of compound 2 measured at 30 min in sprague-dawley rat after 2 mg/kg intravenous administration of compound; format: ADME, organism-based; set-up: dose 2 mg/kg, route intravenous; conditions: in vivo, 0.5 h, read-out: Plasma level
[2] = Plasma level measured at 30 min in sprague-dawley rat upon intravenous administration [dosed in PEG-400 solution]; format: ADME, organism-based; conditions: read-out: Plasma level
[3] = Plasma level measured at 30 min in sprague-dawley rat upon intravenous administration; format: ADME; conditions: read-out: Plasma level
[4] = biological target: Prostaglandin G/H synthase 1 (Homo sapiens, UniProt P23219); experiment: Inhibitory concentration against prostaglandin G/H synthase 1 of human whole blood
Prostaglandin G/H synthase 1, sequence (P23219 whole entry): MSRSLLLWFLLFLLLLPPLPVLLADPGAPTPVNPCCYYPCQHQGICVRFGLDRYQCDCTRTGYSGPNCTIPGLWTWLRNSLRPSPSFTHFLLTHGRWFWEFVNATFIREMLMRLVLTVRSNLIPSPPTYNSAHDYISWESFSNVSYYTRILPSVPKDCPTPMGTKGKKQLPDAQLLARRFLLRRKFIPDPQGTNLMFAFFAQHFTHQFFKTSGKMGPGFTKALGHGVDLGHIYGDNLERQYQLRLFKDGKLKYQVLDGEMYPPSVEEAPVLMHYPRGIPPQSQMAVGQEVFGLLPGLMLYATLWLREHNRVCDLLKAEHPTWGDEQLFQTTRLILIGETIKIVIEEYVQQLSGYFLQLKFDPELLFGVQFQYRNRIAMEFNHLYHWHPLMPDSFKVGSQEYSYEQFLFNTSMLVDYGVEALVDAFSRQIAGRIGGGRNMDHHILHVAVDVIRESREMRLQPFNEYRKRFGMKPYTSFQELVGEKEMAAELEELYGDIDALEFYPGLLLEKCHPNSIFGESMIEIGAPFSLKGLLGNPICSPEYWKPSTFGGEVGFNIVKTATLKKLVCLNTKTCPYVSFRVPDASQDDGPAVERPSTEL

concentration [1]	Compound	further results
< 100 nM	CC[C@]1(C)O/C(=N\[C@@H](CO)C(=O)O)C(OC(C)C)=C1c1ccc(S(C)(=O)=O)cc1	
< 100 nM	CC[C@]1(C)O/C(=N\OCC(=O)O)C(OC(C)C)=C1c1ccc(S(C)(=O)=O)cc1	

Second part, the compound before the results:

Compound	concentration [1]	further results
CC[C@]1(C)OC2(OCC(CO)O2)C(OC(C)C)=C1c1ccc(S(C)(=O)=O)cc1 (stereo partly specified)	2800 nM	concentration at 0.5 h [2]: 1400 nM
CC[C@]1(C)OC2(OCC(COP(=O)([O-])OCC[N+](C)(C)C)O2)C(OC(C)C)=C1c1ccc(S(C)(=O)=O)cc1 (stereo partly specified)	200 nM	concentration at 0.5 h [3]: 200 nM
CC[C@]1(C)OC2(OCC(C3OC(=O)C(O)=C3O)O2)C(OC(C)C)=C1c1ccc(S(C)(=O)=O)cc1 (stereo partly specified)	100 nM	
CC[C@]1(C)OC2(OCC(COC(=O)CCC(=O)[O-])O2)C(OC(C)C)=C1c1ccc(S(C)(=O)=O)cc1.[Na+] (stereo partly specified)	400 nM	concentration at 0.5 h [3]: < 100 nM
CC1(O)OC(=O)C(c2ccc(Cl)cc2)=C1c1ccc(S(C)(=O)=O)cc1 (stereo unspecified)		IC50 [4]: > 86 µM
CC[C@]1(C)OC(=O)C(OC(C)C)=C1c1ccc(S(C)(=O)=O)cc1		IC50 [4]: > 86 µM

From ChEMBL document CHEMBL1144376, “Novel approach to pro-drugs of lactones: water soluble imidate and ortho-ester derivatives of a furanone-based COX-2 selective inhibitor” (Bioorg Med Chem Lett, 2005)
